The source of these data is PubChem BioAssay (NCI).

Common to all, as to assay: growth of human tumour cells (NCI), 48 h
In assay [1] the test system is A498 renal.
Assay [2] has as its system ACHN renal.
For assay [3], the system named is BT-549 breast.
Assay [4] deals with HCT-15 colon.
Assay [5] has as its system K-562 leukemia.
In assay [6] the test system is KM12 colon.
Assay [7] has as its system MDA-MB-435.
Assay [8] concerns MOLT-4 leukemia.
The test system of assay [9] is OVCAR-4 ovarian.
The test system of assay [10] is PC-3 prostate.
For assay [11], the system named is SF-539 CNS.
Assay [12] concerns SK-MEL-2 melanoma.
The subject of assay [13] is SK-MEL-28 melanoma.
Assay [14] relates to SK-OV-3 ovarian.
Assay [15] has as its system SNB-75 CNS.
In assay [16] the test system is SR leukemia.
Assay [17] concerns T-47D breast.
The test system of assay [18] is TK-10 renal.
Assay [19] deals with U251 CNS.
Assay [20] deals with MALME-3M melanoma.

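Compound exposure: 48 hours, 5 concentrations, 96-well plates. TGI marks complete inhibition of growth.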

For `CC(C)=C1C(=O)C[C@]2(C)C/C=C(\C)CC/C=C(\C)CC[C@@H]12`, the TGI in [1] is 47.9 µM; in [2], 16.4 µM; in assay [3], 24.8 µM; in assay [4], 15.4 µM; in assay [5], 13.6 µM; in assay [6], 16.1 µM. Moreover, the TGI in assay [7] was 20 µM; in assay [8], 18.2 µM; in assay [9], 45.6 µM; in assay [10] it was more than 50 µM; in assay [11] it was 15.8 µM; in [12] it was 15.8 µM. Moreover, the TGI in [13] was 15.2 µM; in assay [14], more than 50 µM; in [15], 20.2 µM; in assay [16], 28.3 µM; in [17] it was more than 50 µM; in assay [18], 22.2 µM. The compound also displayed a TGI in assay [19] of 14.8 µM.
With `COC(OC)C1(c2ccccc2)Oc2ccccc2C1=O` (stereo unspecified), the TGI in assay [1], in assay [2], in [3], in [4], in [5] and in [6] was more than 100 µM each time. The TGI in assay [20], in assay [7], in assay [8], in [9], in [10] and in assay [11] was more than 100 µM each time. The TGI in [12], in assay [13], in assay [14], in assay [15], in [16] and in assay [17] was more than 100 µM throughout. In addition, the TGI in assay [18] and in assay [19] was more than 100 µM throughout.
Take `CCOC(=O)c1c(NS(=O)(=O)c2ccc(Br)cc2)sc2c1CCCC2`: the TGI in assay [1] is 42.2 µM; in assay [2], 14.6 µM; in assay [3], 19.4 µM; in assay [4] it was 19 µM; in assay [5] it was more than 100 µM; in [6], 18.2 µM. Also, the TGI is 27.9 µM in [20]; 49.1 µM in [7]; 12.3 µM in assay [8]; more than 100 µM in [9]; 11.5 µM in [10]; 19.8 µM in assay [11]. Also, the TGI in assay [12] came to 13.5 µM; in assay [13], 32.6 µM; in [14], 50 µM; in assay [15], 12.4 µM; in assay [16] it was 74.7 µM; in assay [17] it was 14.5 µM. Besides, the TGI turned out to be 31.9 µM in assay [18] and 25.4 µM in [19].
As to `O=c1oc2ccccc2c(-c2ccc(O)cc2)c1Oc1ccc(Cl)cc1`, the TGI was 77.2 µM in [1]; 97.2 µM in assay [2]; 84.3 µM in assay [3]; more than 100 µM in assay [4]; 72.1 µM in [5]; more than 100 µM in [6]. Further, the TGI in assay [20] was 55 µM; in [7] it was more than 100 µM; in assay [9], more than 100 µM; in [10] it was 97.1 µM; in assay [11], more than 100 µM; in assay [12] it was 54.2 µM. In addition, the TGI in assay [13] was more than 100 µM; in assay [15], 85.7 µM; in [16] it was 51.9 µM; in assay [17], more than 100 µM; in assay [18] it was 62.1 µM; in assay [19] it was 61.4 µM.
On to `O=C(c1ccsc1)c1cc2c(s1)C(=O)c1ccsc1C2=O`, for which the TGI turned out to be 2.94 µM in assay [1]; 0.241 µM in [2]; 0.198 µM in [3]; 0.305 µM in assay [4]; 0.434 µM in [6]; 0.0845 µM in assay [20]. The TGI in [7] was 0.0696 µM; in assay [8], more than 100 µM; in [9] it was 0.335 µM; in assay [10] it was 0.933 µM; in assay [11] it was 0.138 µM; in assay [12] it was 0.982 µM. Also, the TGI was 0.305 µM in assay [13]; 3.09 µM in [14]; 0.311 µM in [15]; more than 100 µM in [16]; 0.675 µM in assay [17]; 1.25 µM in assay [18]. This compound also showed a TGI in [19] of 0.34 µM.
With `CCOC(=O)c1c(N2CCOCC2)[nH]c(=O)c(C(c2c(O)c(C(=O)OCC)c(N3CCOCC3)[nH]c2=O)C(C)C)c1O`, the TGI in assay [1], in [2], in assay [3], in [4], in [5] and in [6] was more than 100 µM each time. Moreover, the TGI in [20], in [7], in [8], in [9], in assay [10] and in assay [11] was more than 100 µM throughout. Moreover, the TGI in [12] is more than 100 µM; in [13], more than 100 µM; in assay [14] it was more than 100 µM; in assay [15], 69.7 µM; in assay [16], more than 100 µM; in assay [17] it was more than 100 µM. The TGI in assay [18] and in [19] was more than 100 µM throughout.
For the compound `COC(=O)C1=C(O)C(C(=O)OC)[C@]2(O)[C@H](C(=O)OC)[C@H]1C[C@@H](c1ccccc1OC)[C@H]2C(=O)OC` (stereo partly specified), the TGI was 17.4 µM in assay [1]; 21.3 µM in [2]; 11.2 µM in [3]; 13.5 µM in assay [4]; more than 38.9 µM in [5]; 21.9 µM in assay [6]. Besides, the TGI in assay [20] is 13.5 µM; in assay [7], 9.79 µM; in assay [8], 25.5 µM; in assay [9], 31.3 µM; in [10], 20.7 µM; in [11], more than 23.7 µM. For the same compound, the TGI in assay [12] is 20.1 µM; in assay [13], 27.1 µM; in [14], more than 50.9 µM; in [15], more than 71.3 µM; in assay [16] it was 7.04 µM; in [17] it was more than 76.1 µM. Also, the TGI is more than 54.7 µM in assay [18] and 19.3 µM in [19].
